Data published in article PMC10873978, “Novel tetrahydroisoquinolines as DHFR and CDK2 inhibitors: synthesis, characterization, anticancer activity and antioxidant properties” (BMC Chemistry, 2024).
Where “and” joins values, the source holds several entries; their conditions need not be identical. Equal entries are not always repeated. Where two headings read alike, the source gives them in different places.

Key:
[1] = test system: MCF7 cell line; assay: In vitro cytotoxic activity, MTT method, MCF7; assay type: cell-based, human; conditions: for IC50: MTT
Procedure, shortened: (§1)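 MTT assay: cells seeded at 10^5 cells/mL, grown 24 h at 37 °C to a monolayer, then exposed to serial tetrahydroisoquinoline concentrations at 37 °C. MTT (5 mg/mL stock) added for 1–5 h; OD read at 560 nm minus 620 nm background. Doxorubicin as positive control.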

[2] = test system: A549 cell line; assay: In vitro cytotoxic activity, MTT method, A549
Procedure, shortened: as §1

[3] = Cytotoxicity on normal cell line WI-38; assay type: cell-based, human; conditions: human, WI-38 cells (normal fetal lung fibroblasts)
[4] = test system: WI-38 cell line; assay: Cytotoxicity on normal cell line WI-38; assay type: cell-based, human; conditions: for IC50: read-out: Toxicity on WI38 IC50 ± SD
[5] = test system: MCF7 cells; assay: Cell cycle analysis (propidium iodide flow cytometry), MCF7; assay type: cell-based, human
Procedure: Then centrifuged the cells and washed twice with ice-cold PBS, and incubated for 20 min at 4 °C. A cell cycle assay was used to assess the cell cycle (Propidium Iodide Flow Cytometry Kit [ab13941]. Then perform statistical analysis for the result by the Cell quest software on the cell fractions in sub-G0/G1, S, and G2/M phases.

[6] = test system: MCF7 cell line; assay: Annexin-V FITC/PI apoptosis assay, MCF7; assay type: cell-based, human; conditions: MCF7, compound at IC50, 24 h
Procedure: (www.biovision.com). […] These stained cells were measured using flow cytometry with an excitation wavelength of 488 nm and an emission wavelength of 530 nm. The results were then analyzed with the Cell quest software.
To further investigate whether the anti-proliferative activity for compound 7e or 8d is harmonious with the apoptosis induction within A549 or MCF7 cells pointed out by the increased cell population in G2/M phase in 7e-treated A549 cells and S phase in 8d-treated MCF7 cells, respectively, and AnnexinV-FITC/PI dual staining analysis was used for the apoptosis assay (Fig. 3).

[7] = molecular target: T1, Dihydrofolate Reductase (DHFR) (Homo sapiens, UniProt P00374); assay: DHFR inhibitors assay kit (absorbance 340 nm); assay type: biochemical; conditions: for %inh: DHFR
T1 construct: purchased abcam ab283374
T1 sequence (P00374 1-187): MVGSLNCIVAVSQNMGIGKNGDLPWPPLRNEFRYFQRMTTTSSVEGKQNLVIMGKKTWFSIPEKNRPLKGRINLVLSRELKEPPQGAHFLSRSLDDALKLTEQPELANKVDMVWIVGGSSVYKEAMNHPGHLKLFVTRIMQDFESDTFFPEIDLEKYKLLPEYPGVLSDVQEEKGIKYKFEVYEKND
Procedure: The DHFR inhibitors assay kit was performed according to abcam (code ab283374); (www.abcam.co.jp).
Firstly, Dilute 2 μL Dihydrofolate Reductase with798 μL DHFR Assay Buffer. Then add 98 μL of diluted Dihydrofolate Reductase into desired well(s) containing the out synthesized 8d compound. Add 40 μL of diluted NADPH to each well containing the test samples. Incubate at room temperature for 10–15 min. Add 60 μL of diluted DHFR substrate to each well containing the test samples vortex briefly and keep on ice. Measure the absorbance immediately at 340 nm. Then calculate the inhibition concentration of 8d compound. The data was analyzed and plot by Graphpad prism software.

[8] = MCF7 cells, compound at IC50, 48 h

Compound: CC(=O)c1ccc(NC(=O)c2sc3nc(C)c4c(c3c2N)CC(C)(O)C(C(C)=O)C4c2ccc(N(C)C)cc2)cc1 (stereo not drawn) [Compound 8d, 7-Acetyl-N-(4-acetylphenyl)-1-amino-5,8-dimethyl-8-hydroxy-6-(4-N,N-dimethylaminophenyl)-6,7,8,9-tetrahydrothieno[2,3-c]isoquinoline-2-carboxamide]
- IC50 ([1]; Homo sapiens, MCF7, MCF7 cell line): 170 nM
- Toxicity % ([1]; MCF7, Conc. 0.0487 µMol): 21.79%
- Viability % ([1]; MCF7, Conc. 0.0487 µMol): 78.2125%
- Viability % ([1]; MCF7, Conc. 0.0975 µMol): 54.4424%
- Toxicity % ([1]; MCF7, Conc. 0.195 µMol): 54.13%
- Viability % ([1]; MCF7, Conc. 0.195 µMol): 45.87%
- Toxicity % ([1]; MCF7, Conc. 0.391 µMol): 65.48%
- Viability % ([1]; MCF7, Conc. 0.391 µMol): 34.52%
- Toxicity % ([1]; MCF7, Conc. 0.781 µMol): 88.6%
- Viability % ([1]; MCF7, Conc. 0.781 µMol): 11.4%
- Toxicity % ([1]; MCF7, Conc. 1.562 µMol): 93.83%
- Viability % ([1]; MCF7, Conc. 1.562 µMol): 6.168%
- Toxicity % ([1]; MCF7, Conc. 3.125 µMol): 94.61%
- Viability % ([1]; MCF7, Conc. 3.125 µMol): 5.392%
- Toxicity % ([1]; MCF7, Conc. 6.25 µMol): 96.41%
- Viability % ([1]; MCF7, Conc. 6.25 µMol): 3.595%
- Toxicity % ([1]; MCF7, Conc. 12.5 µMol): 97.06%
- Viability % ([1]; MCF7, Conc. 12.5 µMol): 2.941%
- Toxicity % ([1]; MCF7, Conc. 25 µMol): 97.55%
- Viability % ([1]; MCF7, Conc. 25 µMol): 2.451%
- IC50 ([1]; MCF7 cell line): 117 ± 4 nM
- Toxicity % ([2]; A549, Conc. 0.04875 µMol): 13.49%
- Toxicity % ([2]; A549, Conc. 0.0975 µMol): 15.39%
- Toxicity % ([2]; A549, Conc. 0.195 µMol): 19.17%
- Viability % ([2]; A549, Conc. 0.195 µMol): 80.83%
- Toxicity % ([2]; A549, Conc. 0.391 µMol): 43.87%
- Viability % ([2]; A549, Conc. 0.391 µMol): 56.13%
- Toxicity % ([2]; A549, Conc. 0.781 µMol): 53.45%
- Viability % ([2]; A549, Conc. 0.781 µMol): 46.55%
- Toxicity % ([2]; A549, Conc. 1.562 µMol): 68.4%
- Viability % ([2]; A549, Conc. 1.562 µMol): 31.6%
- Toxicity % ([2]; A549, Conc. 3.125 µMol): 82.68%
- Viability % ([2]; A549, Conc. 3.125 µMol): 17.32%
- Toxicity % ([2]; A549, Conc. 6.25 µMol): 88.4%
- Viability % ([2]; A549, Conc. 6.25 µMol): 11.6%
- Toxicity % ([2]; A549, Conc. 12.5 µMol): 96.41%
- Viability % ([2]; A549, Conc. 12.5 µMol): 3.59%
- Toxicity % ([2]; A549, Conc. 25 µMol): 96.65%
- Viability % ([2]; A549, Conc. 25 µMol): 3.353%
- IC50 ([2]; Homo sapiens, read-out: IC50 ± SD): 515 ± 2 nM
- viability at 3.125 µM ([3]; WI38): 86.3%
- viability at 1.55 µM ([3]; WI38, 1.55uM (log conc. 0.19), read-out: % viability): 96.7%
- viability at 6.25 µM ([3]; WI38, 6.25uM (log conc. 0.8), read-out: % viability): 74%
- viability at 12.5 µM ([3]; WI38, 12.5uM (log conc. 1.1), read-out: % viability): 62.8%
- viability at 25 µM ([3]; WI38, 25uM (log conc. 1.4), read-out: % viability): 46.9%
- IC50 ([4]; Homo sapiens, WI-38, normal human fetal lung fibroblast WI-38): 23300 nM
- Selectivity index (SI) ([4]; IC50 in WI-38 / IC50 in A549): 45 and 45.24
- % viability ([4]; WI38, 6.25uM (log conc. 0.8), 6.25 µM): 73.9744%
- % viability ([4]; WI38, 25uM (log conc. 1.4), 25 µM): 46.8729%
- IC50 ([4]; normal human fetal lung fibroblast WI-38): 23300 ± 930 nM
- phase of cell cycle arrest ([5]; MCF7 cell line): S phase
- DNA content %G0-G1 [5, 8]: 52.03%
- DNA content %G2/M [5, 8]: 10.05%
- DNA content %S [5, 8]: 37.92%
- early apoptotic population [6]: 22.38%
- late apoptotic population [6]: 26.96%
- population of necrotic cells [6]: 5.04%
- %inh ([7]; conc 0.01 (log -2)): 27.5%
- %inh ([7]; conc 0.1 (log -1)): 38.9%
- %inh ([7]; conc 1 (log 0)): 67.1%
- %inh ([7]; conc 10 (log 1)): 85.7%
- %inh ([7]; conc 100 (log 2)): 93%
- IC50 ([7]; read-out: DHFR inhibition (IC50 ± SD)): 199 ± 16 nM
